Active and inactive are the calls of the source. The calls are words filed in the database; no cut-off is given here.
Key:
[1] = Cytotoxicity against human HepG2.2.15 cells assessed as growth inhibition at 0.8 mM by MTT assay relative to control; type: cell-based, HepG2 2.2.15; settings: read-out: GI
Hepatitis B virus [2] = assay: Antiviral activity against HBV infected in human HepG2.2.15 cells assessed as inhibition of HBeAg secretion at 0.4 mM supplemented with fresh medium containing compound every 3 days for 9 days measured after 9 days by ELISA relative to control; type: functional
Hepatitis B virus [3] = assay: Antiviral activity against HBV infected in human HepG2.2.15 cells assessed as inhibition of HBsAg secretion at 0.4 mM supplemented with fresh medium containing compound every 3 days for 9 days measured after 9 days by ELISA relative to control; type: functional
Hepatitis B virus [4] = assay: Antiviral activity against HBV infected in human HepG2.2.15 cells assessed as inhibition of HBeAg secretion at 0.2 mM supplemented with fresh medium containing compound every 3 days for 9 days measured after 9 days by ELISA relative to control; type: functional
Hepatitis B virus [5] = assay: Antiviral activity against HBV infected in human HepG2.2.15 cells assessed as inhibition of HBsAg secretion at 0.2 mM supplemented with fresh medium containing compound every 3 days for 9 days measured after 9 days by ELISA relative to control; type: functional
[6] = Cytotoxicity against human HepG2.2.15 cells assessed as growth inhibition at 0.4 mM by MTT assay relative to control; type: cell-based, HepG2 2.2.15; settings: read-out: GI
Hepatitis B virus [7] = assay: Antiviral activity against HBV infected in human HepG2.2.15 cells assessed as inhibition of HBsAg secretion at 0.8 mM supplemented with fresh medium containing compound every 3 days for 9 days measured after 9 days by ELISA relative to control; type: functional
Hepatitis B virus [8] = assay: Antiviral activity against HBV infected in human HepG2.2.15 cells assessed as inhibition of HBeAg secretion at 0.8 mM supplemented with fresh medium containing compound every 3 days for 9 days measured after 9 days by ELISA relative to control; type: functional
[9] = Cytotoxicity against human HepG2.2.15 cells assessed as growth inhibition at 1 mM by MTT assay relative to control; type: cell-based, HepG2 2.2.15; settings: read-out: GI
Hepatitis B virus [10] = assay: Antiviral activity against HBV infected in human HepG2.2.15 cells assessed as inhibition of HBeAg secretion at 1 mM supplemented with fresh medium containing compound every 3 days for 9 days measured after 9 days by ELISA relative to control; type: functional
Hepatitis B virus [11] = assay: Antiviral activity against HBV infected in human HepG2.2.15 cells assessed as inhibition of HBsAg secretion at 1 mM supplemented with fresh medium containing compound every 3 days for 9 days measured after 9 days by ELISA relative to control; type: functional

SMILES | inhibition at 800 µM [1] [%] | inhibition (INH) (Hepatitis B virus [2]) [%] | inhibition (INH) (Hepatitis B virus [3]) [%] | also measured
O=C1CCC[C@@H]2[C@H]3CCCN4CCC[C@@H](CN12)[C@H]34 | ≥ 25 | 17.7 | 26.3 | 
O=C1CCC[C@@H]2[C@H]3CCCN4CCC[C@@](O)(CN12)[C@@H]34 |  |  |  | inhibition (INH) (Hepatitis B virus [4]): 28.4%; inhibition (INH) (Hepatitis B virus [5]): 33.8%; inhibition at 400 µM [6]: ≥ 25%
O=C(CCCc1ncc2c3c1CCCN3CCC2)N1CCCCC1 |  |  |  | inhibition (INH) (Hepatitis B virus [4]): 38%; inhibition (INH) (Hepatitis B virus [5]): 44.3%; inhibition at 400 µM [6]: ≥ 25%
O=C1CCCC2=C3CCCN4CCC[C@@H](CN12)[C@@H]34 | ≥ 25 | 29.9 | 22.4 | 
O=C1CCC[C@@H]2[C@H]3CCCN4CCC[C@@H](CN12)[C@@H]34 [MATRINE] | ≥ 25 | 16.8 | 34.7 | 
O=C1CCC[C@@H]2[C@H]3CCC[N+]4([O-])CCC[C@@H](CN12)[C@@H]34 (stereo partly specified) [OXYMATRINE] | ≥ 25 | 20.3 | 38.3 | 
O=C1CCCC2=C3CCC[N+]4([O-])CCC[C@@H](CN12)[C@@H]34 (stereo partly specified) |  |  |  | inhibition (INH) (Hepatitis B virus [7]): 25.4%; inhibition (INH) (Hepatitis B virus [8]): 22.6%; inhibition at 1000 µM [9]: ≥ 25%
O=C1CCCN2CCC[C@](O)(CN3C(=O)CCC[C@H]13)C2=O | ≥ 25 |  | 14.1 | inhibition (Hepatitis B virus [2]): inactive
Nc1ccn([C@@H]2CS[C@H](CO)O2)c(=O)n1 [LAMIVUDINE] |  |  |  | inhibition (INH) (Hepatitis B virus [10]): 37.5%; inhibition (INH) (Hepatitis B virus [11]): 31.5 - 32.6%
O=C(O)CCCC1=NCC2CCCN3CCCC1=C23 (racemic) | ≥ 25 | 15.1 | 29.8 | 
O=c1cccc2n1C[C@@H]1CCCN3CCC[C@H]2[C@H]13 |  |  |  | inhibition (INH) (Hepatitis B virus [7]): 29.5%; inhibition (INH) (Hepatitis B virus [8]): 13.5%; inhibition at 1000 µM [9]: ≥ 25%
O=C(O)CCCc1ncc2c3c1CCCN3CCC2 | ≥ 25 | 33.2 | 37.2 | 
O=C1CCCN2CCC[C@](O)(C2=O)[C@H]2CCCC(=O)N2C1 | ≥ 25 | 40.4 | 46 | 
O=C1CC[C@H]2[C@@H]3[C@H](CCCN13)CN1C(=O)CCC[C@H]21 | ≥ 25 | 18.3 | 32.5 | 
O=C(O)CCC[C@@H]1N=CC2=C3[C@H]1CCCN3CCC2 | ≥ 25 | 16.8 | 30.8 | 
O=C1[C@@H](O)CC[C@@H]2[C@H]3CCCN4CCC[C@@H](CN12)[C@@H]34 | ≥ 25 | 18.5 | 33.2 | 
O=C1CCC[C@@H]2[C@H]3CCCN4CCC[C@H](CN12)[C@H]34 | ≥ 25 |  | 13.8 | inhibition (Hepatitis B virus [2]): inactive
O=C1CCC[C@@H]2[C@H]3CCCN4CCC[C@H](CN12)[C@@H]34 [SOPHORIDINE] | ≥ 25 | 21.9 | 40.2 | 
O=C1CC[C@H]2C3=C(CCCN13)CN1C(=O)CCC[C@H]21 |  |  |  | inhibition (INH) (Hepatitis B virus [4]): 38.8%; inhibition (INH) (Hepatitis B virus [5]): 33%; inhibition at 400 µM [6]: ≥ 25%

Source: ChEMBL document CHEMBL4196244, “Matrine-Type Alkaloids from the Roots of Sophora flavescens and Their Antiviral Activities against the Hepatitis B Virus” (J Nat Prod, 2018)
